# Assays:
# [1] = test system: PSA and AR expression in LNCaP cells; assay: Western blot of PSA and AR expression in DHT-treated LNCaP cells; format: cell-based, human; conditions: 10 nM DHT, 24 h
# Excerpt: The AR suppressing activity of HDHS was also examined in LNCaP cells, another androgen-dependent PCa cell line. […] Expression of endogenous PSA in treated cells, as a measure of cellular response to androgen, and AR activity were detected by western blot with anti-PSA and anti-AR antibodies. Protein levels (relative to actin; listed below the first two blots) were quantitatively analyzed with Chemigenius (Biolabo). The blots shown in FIG. 2B are representative of three independent experiments.
# [2] = test system: 22Rv1 cells; assay: MTT cell viability; format: cell-based, human; conditions: 22Rv1, concentrations above 10 μM, 48 h
# Protocol: The effects of HDHS on cell viability in various PCa cell lines including androgen-dependent LNCaP, androgen-responsive 22Rv1 cells, and androgen-independent PC-3 cells were tested and compared with untransformed fibroblast NIH-3T3 cells. PCa or NIH-3T3 cells (1×10^4 cells) were seeded into 96-well microtiter plates with 10% FBS culture medium. After 24 h, cells were incubated in 10% FBS medium containing different concentrations of HDHS or equivalent amounts of vehicle alone as control for 48 h. Cell viability was then determined by MTT assay, which quantitatively measures the metabolic activity of living cells.
# [3] = test system: 22Rv1 cells; assay: Colony-forming growth assay; format: cell-based; conditions: Homo sapiens, 288 h; 22Rv1, 12 days; read-out: IC50 (anti-proliferation potency), colony growth
# Protocol: (§1) FIGS. 3A-C. HDHS affects growth of PCa cells. A, Cell viability of different cell lines treated with vehicle (Ctrl) or indicated concentrations of HDHS for 48 h. The absorbance of the control group was defined as 100%. B, Colony-forming growth of LNCaP and 22Rv1 cells (AR-dependent PCa cells) and PC-3 cells (AR-independent PCa cells) in 24-well multi-dishes with indicated treatments for 12 days. The results were presented as percentage of growth with respect to control treatment of the same cell line. C, Photographs of different PCa cell lines growing on culture plates with designated treatments for […].
# (§2) The long-term effect of HDHS on the malignant growth of AR-dependent (22Rv1, and LNCaP) and AR-independent (PC-3) PCa cells was examined by colony-forming growth assay. […] The differential effect was also reflected in the morphology of treated cells.
# [4] = test system: LNCaP cells; assay: Colony-forming growth assay; format: cell-based; conditions: Homo sapiens, 288 h, 12 days, read-out: IC50 (anti-proliferation potency), colony growth
# Protocol: as §1, §2
# [5] = test system: PC-3 cells; assay: Colony-forming growth assay; format: cell-based; conditions: Homo sapiens, 288 h; PC-3, 12 days; read-out: IC50 (anti-proliferation potency), colony growth
# Protocol: as §1, §2
# [6] = test system: 22Rv1 cells; assay: Apoptosis by nucleosome release (cytoplasmic DNA fragmentation); format: cell-based, human; conditions: 22Rv1, 5-10 μM, 24 h
# Protocol: A, Apoptosis of cytoplasmic DNA fragmentation in different cell lines treated with vehicle or indicated concentrations of HDHS for 24 h. Difference between the indicated pair of treatments was tested for statistic significance as marked. *, P≦0.05; **, P≦0.01.
# In light of the increase of sub-G1 populations by HDHS, apoptosis in treated cells was further analyzed via measurement of nucleosome release in PCa cells.
# [7] = test system: PC-3 cells; assay: Western blot of caspases and PARP; format: cell-based, human; conditions: PC-3, 10 μM, 24 h
# Protocol: During apoptosis, various caspases are activated which are involved in the cleavage and […] a range of cellular substrates, including […] the DNA repair enzyme PARP (Herceg Z et al., Mol Cell Biol 1999;10:5124-33; Okada H et al., Nat Rev Cancer 2004; 4:592-603). In the presence of 10 μM HDHS, PARP cleavage was observed, and at the same time caspase-3 and -7 were activated by proteolytic cleavage (FIG. 4B, lane 5). […] In contrast, activation of caspase-3 and -7 or cleavage of PARP were not detected in PC-3 cells treated with 10 μM HDHS for 24 h (FIG. 4B, lane 10). Tumor suppressor p53 is a control for the G1 checkpoint and cell apoptosis, and LNCaP cells express wild-type p53 (van Bokhoven A et al., Prostate 2003; 57:205-25).
# [8] = test system: LNCaP cells; assay: Western blot of G1-associated cyclins, CDKs, CDK inhibitors and Rb phosphorylation; format: cell-based, human; conditions: 24 h
# Excerpt: (§3) The molecular mechanisms for HDHS-induced G0-G1 cell cycle arrest were further assessed by the expression of the cyclins and CDKs that operate in the G1 phase in PCa cells (Malumbres M et al., Nat Rev Cancer 2001; 1:222-31; Massague J. Nature 2004; 432:298-306).
# [9] = test system: PC-3 cells; assay: as above; format: cell-based, human; conditions: PC-3, compared with LNCaP
# Excerpt: as §3
# [10] = target: T1, androgen receptor (Homo sapiens, UniProt P10275); assay: PSA promoter luciferase reporter assay in 103E cells (AR transcriptional activity)
# T1 sequence (P10275 with tags, fused parts or gaps DUP590-628/H875Y): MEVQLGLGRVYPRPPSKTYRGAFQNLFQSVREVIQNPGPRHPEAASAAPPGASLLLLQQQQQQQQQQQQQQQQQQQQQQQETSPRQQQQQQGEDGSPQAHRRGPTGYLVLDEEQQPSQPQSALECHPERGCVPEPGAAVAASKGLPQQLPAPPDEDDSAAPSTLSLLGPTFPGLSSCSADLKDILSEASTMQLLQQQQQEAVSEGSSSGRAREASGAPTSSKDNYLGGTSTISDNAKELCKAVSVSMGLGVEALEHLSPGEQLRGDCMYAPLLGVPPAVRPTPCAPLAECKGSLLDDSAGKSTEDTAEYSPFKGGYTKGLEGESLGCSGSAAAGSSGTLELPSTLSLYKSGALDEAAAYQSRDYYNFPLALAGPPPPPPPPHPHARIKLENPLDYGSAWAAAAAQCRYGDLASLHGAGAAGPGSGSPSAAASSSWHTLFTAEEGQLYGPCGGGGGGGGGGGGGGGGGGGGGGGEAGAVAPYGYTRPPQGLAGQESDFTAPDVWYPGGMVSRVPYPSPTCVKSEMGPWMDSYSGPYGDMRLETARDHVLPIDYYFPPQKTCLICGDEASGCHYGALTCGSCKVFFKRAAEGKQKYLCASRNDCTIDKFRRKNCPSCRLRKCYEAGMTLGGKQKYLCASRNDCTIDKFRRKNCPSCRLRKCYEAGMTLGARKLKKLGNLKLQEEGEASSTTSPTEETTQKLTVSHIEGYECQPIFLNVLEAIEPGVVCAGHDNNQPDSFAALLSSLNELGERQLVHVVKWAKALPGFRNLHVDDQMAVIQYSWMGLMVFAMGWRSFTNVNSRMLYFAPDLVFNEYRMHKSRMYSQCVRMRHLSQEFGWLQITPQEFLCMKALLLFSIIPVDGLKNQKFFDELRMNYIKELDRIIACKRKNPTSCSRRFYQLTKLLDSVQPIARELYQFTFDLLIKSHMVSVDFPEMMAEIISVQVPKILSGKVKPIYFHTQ
# Protocol: PC-3 and NIH-3T3 were cultured in DMEM (Hyclone) supplemented with 10% FBS. Cultures were maintained in a humidified incubator at 37° C. in 5% CO2/air.
# Cells were treated with various compounds for a period of 20 h and luciferase activity was measured using a luciferase reporter gene assay system (Promega).
smiles,measurement,setting,value
"CC(C)c1cc2c(cc1O)[C@@]1(C)CCCC(C)(C)C1=C(O)C2=O [Compound 2, 6,12-dihydroxyabieta-5,8,11,13-tetraen-7-one]",AR activation of PSA expression by DHT,[1]; 10 μM,completely abolished
same,protein levels of AR,[1]; 10 μM,fell to basal level
same,protein levels of AR,[1]; 2.5 or 5 μM,not significantly altered
same,cell viability (MTT),[2],strongly reduced cell viability
same,IC50,[3],6.3 µM
same,IC50,[4],7.5 µM
same,IC50,[5],13.2 µM
same,apoptosis (nucleosome release),[6],significantly induced
same,activation of caspase-3 and -7 or cleavage of PARP,[7],not detected
same,protein expression of CDK inhibitors p21 and p27,[8]; 10 μM,increased
same,cyclins D1 and E protein,[8],concentration-dependent decrease
same,phosphorylation of Rb,[8],markedly decreased
same,"protein levels of CDK4, CDK6, and CDK2",[8],decreased
same,"changes in cyclins, CDKs, p21, p27 and Rb phosphorylation",[9],at a lower magnitude than in LNCaP cells
same,concentration achieving complete inhibition of PSA promoter activity,"[10]; 10 nmol/L DHT, 24 h",greater than 10 μM
same,Inhibitionmax (%) of AR activity,[10]; maximal inhibition at 10 μM,101 ± 4% (10 μM)
same,IC50,"[10]; read-out: IC50 for inhibiting DHT-induced PSA-luciferase reporter, cotreated with 10 nmol/L DHT, 24 h",4.8 µM

# Source: patent publication US8519007B2, “Use certain diterpene compounds in the treatment of androgen receptor-associated diseases” (Academia Sinica, priority 2008, dated 2013)
